This passage reports EC90 results from patent US8697694B2, “Substituted pyridine and pyrimidine derivatives and their use in treating viral infections” (priority 2008, dated 2014).

Usually EC90 stands for the concentration at which the effect reaches the 90% level.

A value given as a limit tells only on which side of the number the result lay.

For the first assay, the system named is HCV replicon cells. The assay can be described thus: Cell-based HCV replicon assay (replicon RNA level by real time PCR, Taqman). Particulars: Hepatitis C virus, 72 h, HCV replicon cells, harvested day 3, replicon RNA by real time PCR; given as number; read-out: EC90 (μM) range. The essentials: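 HCV replicon cells treated 3 days with 10 serial 2-fold compound dilutions (top 25 μM to 1 μM; 0.5% DMSO, 10% FBS). Replicon RNA quantified by multiplex Taqman RT-PCR (NS5B amplicon, GAPDH control); EC50 and EC90 = concentrations giving ΔCT of 1 and 3.2 over baseline.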
In general terms: Replicon systems follow genome replication, usually without infectious particles.
On to `Cc1nc(NCC(F)(F)F)nc(N[C@@H]2CC[C@@H](O)C2)c1-c1nc2ccccc2s1` [Example 54], for which the EC90 is 1 µM.

As for `Cc1nc(NCC(C)(C)C)nc(N[C@@H]2C[C@H](CO)[C@@H](O)[C@H]2O)c1-c1cc2cc(OCC3CC3)ncc2o1` [Example 58], the EC90 was 1 µM.

As for `Cc1nc(NCC2CC2)nc(N[C@@H]2C[C@H](CO)[C@@H](O)[C@H]2O)c1-c1cc2cc(OC(C)C)nc(C)c2o1` [Example 39], the EC90 came to 0.1 µM.

`Cc1nc(NCC2CC2)nc(N[C@@H]2C[C@H](CO)[C@@H](O)[C@H]2O)c1-c1cc2cc(OCC(C)(C)C)nc(C)c2o1` [Example 45]: the EC90 was over 25 µM.

Consider `CCCOc1cc2cc(-c3c(C)nc(NCCOC)nc3N[C@@H]3C[C@H](CO)[C@@H](O)[C@H]3O)oc2c(C)n1` [Example 35], for which the EC90 worked out at 0.1 µM.

The same assay, now with this note: Hepatitis C virus, 72 h, HCV replicon cells, harvested day 3, replicon RNA by real time PCR; reported as range class; read-out: EC90 (μM) range.
With `CN(C)C(=O)c1ccc2cc(-c3c(Cl)nc(N)nc3N[C@@H]3C[C@H](CO)[C@@H](O)[C@H]3O)oc2c1` [Example 176], the EC90 is over 5 µM.

For `Nc1nc(Cl)c(-c2cc3ccncc3o2)c(N[C@@H]2C[C@H](CO)[C@@H](O)[C@H]2O)n1` [Example 9], the EC90 is under 0.5 µM.

For `Cc1nc(N)nc(N[C@@H]2C[C@H](CO)[C@@H](O)[C@H]2O)c1-c1nc2ccccc2s1` [Example 119], the EC90 is under 0.5 µM.

`CNc1nc(Cl)c(-c2nc3ccccc3s2)c(N[C@@H]2C[C@H](CO)[C@@H](O)[C@H]2O)n1` [Example 403]: the EC90 was under 0.5 µM.

As for `Nc1nc(Cl)c(-c2ccc(C=O)o2)c(N[C@@H]2C[C@H](CO)[C@@H](O)[C@H]2O)n1` [Example 156], the EC90 was over 5 µM.

For `COCCCNc1nc(C)c(-c2nc3ccccc3s2)c(N[C@@H]2C[C@H](CO)[C@@H](O)[C@H]2O)n1` [Example 223], the EC90 is under 0.5 µM.

For the compound `Nc1nc(Cl)c(-c2ccccc2Oc2ccccc2)c(N[C@@H]2C[C@H](CO)[C@@H](O)[C@H]2O)n1` [Example 103], the EC90 is over 5 µM.

`CN(C)c1ccc2sc(-c3c(Cl)nc(N(C)C)nc3N[C@@H]3C[C@H](CO)[C@@H](O)[C@H]3O)nc2c1` [Example 204]: the 90% effect concentration (EC90) is over 5 µM.

Consider `CCCc1cc2cc(-c3c(Cl)nc(N)nc3N[C@@H]3C[C@H](CO)[C@@H](O)[C@H]3O)oc2cn1` [Example 410], for which the EC90 was under 0.5 µM.

In the case of `Nc1nc(Cl)c(-c2cc3cc(-c4ccccc4)ccc3o2)c(N[C@@H]2C[C@H](CO)[C@@H](O)[C@H]2O)n1` [Example 174], the EC90 is over 5 µM.

On to `CCCOCCNc1nc(Cl)c(-c2nc3ccccc3s2)c(N[C@@H]2C[C@H](CO)[C@@H](O)[C@H]2O)n1` [Example 226], for which the EC90 is under 0.5 µM.

`CN(C)c1nc(N[C@@H]2C[C@H](CO)[C@@H](O)[C@H]2O)c(-c2nc3ccccc3s2)c(-c2ccccc2)n1` [Example 414]: the EC90 was over 5 µM.

For the compound `CCN(CC)c1nc(Cl)c(-c2nc3ccccc3s2)c(N[C@@H]2C[C@H](CO)[C@@H](O)[C@H]2O)n1` [Example 411], the EC90 lay in the range of 0.5 to 5 µM.

Regarding `Nc1nc(Cl)c(-c2cccs2)c(N[C@@H]2C[C@H](CO)[C@@H](O)[C@H]2O)n1` [Example 153], the EC90 was over 5 µM.

The same assay, now with this note: Hepatitis C virus, 72 h, HCV replicon cells, harvested on day 3, replicon RNA by real time PCR; calculated EC90 reported as range class; read-out: EC90 (μM) range.
For `CCOCCNc1nc(C)c(-c2cc3cc(C(F)(F)F)ncc3o2)c(N[C@@H]2C[C@H](CO)[C@@H](O)[C@H]2O)n1` [Example 138], the EC90 was under 0.5 µM.

Turning to `Cc1nc(NCc2cccc(F)c2)nc(N[C@@H]2C[C@H](CO)[C@H]3OC(C)(C)O[C@H]32)c1-c1nc2ccccc2s1` [Example 243], the EC90 was under 0.5 µM.

As to `CCOC(=O)NCCNc1nc(C)c(-c2nc3ccccc3s2)c(N[C@@H]2C[C@H](CO)[C@H]3OC(C)(C)O[C@H]32)n1` [Example 255], the EC90 was under 0.5 µM.

For `Cc1nc(NCc2ccc(F)cc2)nc(N[C@@H]2C[C@H](CO)[C@H]3OC(C)(C)O[C@H]32)c1-c1nc2ccccc2s1` [Example 235], the EC90 is under 0.5 µM.

For `Cc1nc(NCc2cccs2)nc(N[C@@H]2C[C@H](CO)[C@H]3OC(C)(C)O[C@H]32)c1-c1nc2ccccc2s1` [Example 328], the EC90 was under 0.5 µM.

Consider `Cc1cc(CNc2nc(C)c(-c3nc4ccccc4s3)c(N[C@@H]3C[C@H](CO)[C@H]4OC(C)(C)O[C@H]43)n2)no1` [Example 491], for which the EC90 was 0.5 to 5 µM.

In the case of `Cc1csc(CNc2nc(C)c(-c3nc4ccccc4s3)c(N[C@@H]3C[C@H](CO)[C@@H](O)[C@H]3O)n2)c1` [Example 480], the EC90 is under 0.5 µM.

On to `Cc1nc(CNc2nc(C)c(-c3nc4ccccc4s3)c(N[C@@H]3C[C@H](CO)[C@@H](O)[C@H]3O)n2)cs1` [Example 495], for which the EC90 was under 0.5 µM.

As to `OC[C@H]1C[C@@H](Nc2nc(NCC(F)(F)F)nc(C3CC3)c2-c2nc3ccccc3s2)[C@H](O)[C@@H]1O` [Example 128], the EC90 was over 5 µM.

Still in this assay, the particulars now being: Hepatitis C virus, 72 h, HCV replicon cells, replicon RNA level by real time PCR (Taqman), harvested on day 3; calculated EC90 reported as range class; read-out: EC90 (μM) range.
As to `COCC(O)CNc1nc(C)c(-c2nc3ccccc3s2)c(N[C@@H]2C[C@H](CO)[C@@H](O)[C@H]2O)n1` (stereo partly drawn) [Example 1062], the EC90 is over 5 µM.

For the compound `Cc1nc(N(C)c2ccccc2)nc(N[C@@H]2C[C@H](CO)[C@@H](O)[C@H]2O)c1-c1nc2cnccc2s1` [Example 1217], the EC90 is over 5 µM.

With `Cc1nc(NCC(C)(C)C)nc(N[C@@H]2C[C@H](CO)[C@H]3OC(C)(C)O[C@H]32)c1-c1cc2cc(C(C)(C)C)ncc2o1` [Example 1103], the EC90 is over 5 µM.

On to `Cc1nc(NCC(C)(C)CO)nc(N[C@@H]2C[C@H](CO)[C@@H](O)[C@H]2O)c1-c1nc2cnccc2s1` [Example 1317], for which the EC90 was under 0.5 µM.

Turning to `Cc1nc(NCC(F)(F)F)nc(N[C@@H]2C[C@H](COC(=O)[C@@H](N)C(C)C)[C@@H](O)[C@H]2O)c1-c1nc2ccccc2s1` [Example 1133], the EC90 was 0.5 to 5 µM.

For the compound `Cc1nc(NC(C)(C)c2ccccc2)nc(N[C@@H]2C[C@H](CO)[C@@H](O)[C@H]2O)c1-c1nc2cnccc2s1` [Example 1229], the EC90 was 0.5 to 5 µM.

On to `[2H]C([2H])(Nc1nc(C)c(-c2nc3ccccc3s2)c(N[C@@H]2C[C@H](CO)[C@@H](O)[C@H]2O)n1)c1cc(OC)cc(OC)c1` [Example 1244], for which the EC90 was under 0.5 µM.

Turning to `Cc1nc(NCC2CC2)nc(O[C@@H]2C[C@H](CO)[C@@H](O)[C@H]2O)c1-c1nc2ccccc2s1` [Example 1132], the EC90 is over 5 µM.

Consider `Cc1nc(NC(C)c2ccco2)nc(N[C@@H]2C[C@H](CO)[C@H]3OC(C)(C)O[C@H]32)c1-c1nc2ccccc2s1` (stereo partly drawn) [Example 1101], for which the EC90 is over 5 µM.

Take `COc1cc(CNc2nc(C)c(-c3nc4cnccc4s3)c(N[C@@H]3C[C@H](CO)[C@@H](O)[C@H]3O)n2)cc(OC)c1` [Example 537]: the EC90 is under 0.5 µM.

As to `CCOCCNc1nc(C)c(-c2nc3ccccc3o2)c(N[C@@H]2C[C@H](CO)[C@@H](O)[C@H]2O)n1` [Example 529], the EC90 is under 0.5 µM.

As to `Cc1nc(NCC(F)(F)F)nc(N[C@@H]2C[C@H](CO)[C@@H](O)[C@H]2O)c1-c1cc2cc(OCC(C)C)nc(C)c2o1` [Example 1055], the EC90 is 0.5 to 5 µM.

With `COc1cccc(Nc2nc(C)c(-c3nc4ccccc4s3)c(N[C@@H]3C[C@H](CO)[C@@H](O)[C@H]3O)n2)c1` [Example 1122], the EC90 was 0.5 to 5 µM.

For the compound `Cc1nc(NCC(C)(C)C)nc(N[C@@H]2C[C@H](CO)[C@@H](O)[C@H]2O)c1-c1nc2c(s1)CCN(C)C2` [Example 1321], the concentration for an effect of 90% (EC90) was 0.5 to 5 µM.

With `CCNC[C@H]1C[C@@H](Nc2nc(NCC(F)(F)F)nc(C)c2-c2nc3ccccc3s2)[C@H](O)[C@@H]1O` [Example 1018], the EC90 is 0.5 to 5 µM.

As for `Cc1nc(NCc2cccs2)nc(N[C@@H]2C[C@H](CNS(C)(=O)=O)[C@@H](O)[C@H]2O)c1-c1nc2ccccc2s1` [Example 1330], the EC90 was under 0.5 µM.

Still in this assay, the particulars now being: Hepatitis C virus, 72 h, HCV replicon cells, replicon RNA level by real time PCR, harvested day 3; read-out: EC90 (μM) range.
In the case of `COC(=O)N(C)C[C@H]1C[C@@H](Nc2nc(NCC(F)(F)F)nc(C)c2-c2nc3ccccc3s2)[C@H](O)[C@@H]1O` [Example 1390], the EC90 fell in the range of 0.5 to 5 µM.

Take `Cc1ccc([C@@H](C)Nc2nc(C)c(-c3nc4c(OCC5CC5)nccc4s3)c(N[C@@H]3C[C@H](CO)[C@@H](O)[C@H]3O)n2)cc1` [Example 1339]: the EC90 is under 0.5 µM.

Take `Cc1nc(NCC2CC2)nc(N[C@@H]2C[C@H](C(C)O)[C@@H](O)[C@H]2O)c1-c1nc2ccccc2s1` (single isomer, unassigned) [Example 1644]: the EC90 was under 0.5 µM.

As to `CCc1nccc2sc(-c3c(C)nc(N[C@H](C)C4CC4)nc3N[C@@H]3C[C@H](CO)[C@@H](O)[C@H]3O)nc12` [Example 1505], the EC90 is under 0.5 µM.

For `Cc1nc(NCC2CC2)nc(N[C@@H]2C[C@@H](C(C)O)[C@@H](O)[C@H]2O)c1-c1nc2cnccc2s1` (stereo partly drawn) [Example 1650], the EC90 was under 0.5 µM.

As for `Cc1ccccc1[C@@H](C)Nc1nc(C)c(-c2nc3c(C)nccc3s2)c(N[C@@H]2C[C@H](CO)[C@@H](O)[C@H]2O)n1` [Example 1527], the EC90 is under 0.5 µM.

For the compound `Cc1nc(NCC(F)(F)F)nc(N[C@@H]2C[C@H](CO)N(C(=O)OC(C)(C)C)C2)c1-c1nc2ccccc2s1` [Example 1348], the EC90 is over 5 µM.

As to `CC(=O)C1=C[C@@H](O)[C@H](Nc2nc(NCC(F)(F)F)nc(C)c2-c2nc3ccccc3s2)C1` [Example 1636], the EC90 was under 0.5 µM.

For the compound `CC[C@@H](Nc1nc(C)c(-c2nc3c(C)nccc3s2)c(N[C@@H]2C[C@H](CO)[C@@H](O)[C@H]2O)n1)c1ccc(C)cc1` [Example 1363], the EC90 was under 0.5 µM.

Staying with this assay, now noted: Hepatitis C virus, 72 h, read-out: EC90 (μM) range.
Take `Cc1nc(C#N)nc(N[C@@H]2C[C@H](CO)[C@H]3OC(C)(C)O[C@H]32)c1-c1nc2ccccc2s1` [Example 1901]: the EC90 is over 5 µM.
